Measured values reported in patent US7879852B2, “Melanocortin receptor agonists” (LG Life Sciences Ltd., priority 2006, dated 2011).

Biological target: T1, human melanocortin receptor 4 (MC4R) (Homo sapiens, UniProt P32245)
T1 construct: expressed in transfected cells; grown with 200 ug/ml Geneticin
Assay: Luciferase assay
Format: cell-based
Conditions: agonistic activity at MC4R (Table 18); patent does not state whether luciferase or cAMP assay
Experimental: Cell lines expressing human melanocortin receptor 4 (MC4R) were dissociated from tissue culture dishes by rinsing with Ca^++, Mg^++ free DPBS, treated with 1× Trypsin/EDTA solution for 1 min at 37° C., and resuspended with DMRM (GIBCO-BRL) supplemented with 10% FBS. The cells were counted and diluted with DMEM supplemented with 10% FBS and 200 ug/ml of Geneticin to […]. 90 ul of cell suspension was plated onto each well of 96-well black and clear bottom culture plates (Costar). After the incubation for 24 h in the atmosphere of 6% CO2 at 37° C., 10 ul of NDP-MSH and test compounds diluted in DMSO were added to each well. The final DMSO concentration was 1%. After 4 h of incubation in the atmosphere of 6% CO2 at 37° C., 50 ul of Bright-Glo (Promega) was added to each well. Luciferase activity was measured by using L-Max luminometer (Molecular Device). The amount of luciferase activity induced by treatment with NDP-MSH was defined as 100% to obtain the relative efficacy of test compounds. The EC0.5 MSH was defined as the concentration of test compounds that results in half maximal activity of NDP-MSH. The EC50 was defined as the concentration of test compound that results in half maximal activity of its own.

T1 sequence (P32245 whole entry): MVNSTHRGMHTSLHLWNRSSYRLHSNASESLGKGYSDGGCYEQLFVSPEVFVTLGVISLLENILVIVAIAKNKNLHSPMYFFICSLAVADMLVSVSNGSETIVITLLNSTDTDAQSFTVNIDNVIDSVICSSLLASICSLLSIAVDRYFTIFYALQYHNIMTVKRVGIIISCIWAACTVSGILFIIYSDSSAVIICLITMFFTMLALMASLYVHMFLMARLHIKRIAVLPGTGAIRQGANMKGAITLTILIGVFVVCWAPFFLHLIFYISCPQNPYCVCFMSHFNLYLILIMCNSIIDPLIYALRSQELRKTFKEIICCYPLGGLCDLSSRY

| Compound | EC50 |
| --- | --- |
| CC1(C)CCC(N(C(=O)C(C)(C)C)[C@H]2CCN(C(=O)[C@@H]3CN(C(N)=O)C[C@H]3c3ccc(Cl)cc3)C2)CC1 [Example E2-3] | 45 nM |
| CCN(C)C(=O)[C@@H]1C[C@H](N(C(=O)[C@@H]2CCCO2)C2CCC(C)(C)CC2)CN1C(=O)[C@@H]1CN(C2CCOCC2)C[C@H]1c1ccc(Cl)cc1 [Example E5-2, (4S)-1-{[(3S,4R)-4-(4-chlorophenyl)-1-(tetrahydro-2H-pyran-4-yl)pyrrolidine-3-yl]carbonyl}-4-{(4,4-dimethylcyclohexyl)[(2S)-tetrahydrofuran-2-ylcarbonyl]amino}-N-ethyl-N-methyl-L-prolineamide] | 5 nM |
| CCNC(=O)[C@@H]1C[C@H](N(C(=O)C(C)(C)C)C2CCC(F)(F)CC2)CN1C(=O)[C@@H]1CN(C(C)(C)C)C[C@H]1c1ccc(Cl)cc1 [Example A6, (4S)-1-{[(3S,4R)-1-tert-butyl-4-(4-chlorophenyl)pyrrolidine-3-yl]carbonyl}-4-[(4,4-difluorocyclohexyl)(2,2-dimethylpropanoyl)amino]-N-ethyl-L-prolineamide] | 24 nM |
| CC1(C)CCC(N(C(=O)C(C)(C)C)[C@H]2CCN(C(=O)[C@@H]3CN(C(C)(C)C)C[C@H]3c3ccc(Cl)cc3)C2)CC1 [Example A9, N-[(3S,4R)-1-{[(3S,4R)-1-T-butyl-4-(4-chlorophenyl)pyrrolidine-3-yl]carbonyl}pyrrolidine-3-yl]-N-(4,4-dimethylcyclohexyl)-2,2-dimethylpropaneamide] | 45 nM |
| CC1(C)CCC(N(C(=O)C(C)(C)C)[C@H]2C[C@@H](C(=O)Nc3ccccc3)N(C(=O)[C@@H]3CN(C(C)(C)C)C[C@H]3c3ccc(Cl)cc3)C2)CC1 [Example A99] | 69 nM |
| S-(3-{[(3S,5S)-1-{[(3S,4R)-1-tert-butyl-4-(2,4-difluorophenyl)pyrrolidine-3-yl]carbonyl}-5-{[ethyl(methyl)amino]carbonyl}pyrrolidine-3-yl](4,4-dimethylcyclohexyl)amino}-2,2-dimethyl-3-oxopropyl)ethanethioate [Example C13] | 40 nM |
| CC1(C)CCC(N(C(=O)C(C)(C)CO)[C@H]2CCN(C(=O)[C@@H]3CN(C(N)=O)C[C@H]3c3ccc(Cl)cc3)C2)CC1 [Example E2-2] | 7 nM |
| CN(C)C(=O)[C@@H]1C[C@H](N(C(=O)C(C)(C)C)C2CCC(C)(C)CC2)CN1C(=O)[C@@H]1CN(C(C)(C)C)C[C@H]1c1ccc(F)cc1F [Example A1, (4S)-1-{[(3S,4R)-1-tert-butyl-4-(2,4-difluorophenyl)pyrrolidine-3-yl]carbonyl}-4-[(4,4-dimethylcyclohexyl)(2,2-dimethylpropanoyl)amino]-N,N-dimethyl-L-prolineamide] | 13 nM |
| CCN(C)C(=O)[C@@H]1C[C@H](N(C(=O)C(C)(C)CO)C2CCC(C)(C)CC2)CN1C(=O)[C@@H]1CN(C(C)(C)C)C[C@H]1c1ccc(Cl)cc1 [Example A4, (4S)-1-{[(3S,4R)-1-tert-butyl-4-(4-chlorophenyl)pyrrolidine-3-yl]carbonyl}-4-[(4,4-dimethylcyclohexyl)(3-hydroxy-2,2-dimethylpropanoyl)amino]-N-ethyl-N-methyl-L-prolineamide] | 3 nM |
| (4S)-1-[(3S,4R)-1-tert-butyl-4-(4-chlorophenyl)pyrrolidine-3-yl]carbonyl)-4-{(4,4-dimethylcyclohexyl)[(2S)-tetrahydrofuran-2-ylcarbonyl]amino}-N,N-ethylmethyl-L-prolineamide [Example A2] | 16 nM |
| CN(C)C(=O)[C@@H]1C[C@H](N(C(=O)C(C)(C)C)C2CCC(F)(F)CC2)CN1C(=O)[C@@H]1CN(C(C)(C)C)C[C@H]1c1ccc(Cl)cc1 [Example A5, (4S)-1-{[(3S,4R)-1-tert-butyl-4-(4-chlorophenyl)pyrrolidine-3-yl]carbonyl}-4-[(4,4-difluorocyclohexyl)(2,2-dimethylpropanoyl)amino]-N,N-dimethyl-L-prolineamide] | 33 nM |
| CCNC(=O)[C@@H]1C[C@H](N(C(=O)[C@@H]2CCCO2)C2CCC(C)(C)CC2)CN1C(=O)[C@@H]1CN(C(C)(C)C)C[C@H]1c1ccc(Cl)cc1 [Example A3, (4S)-1-{[(3S,4R)-1-tert-butyl-4-(4-chlorophenyl)pyrrolidine-3-yl]carbonyl}-4-{(4,4-dimethylcyclohexyl)[(2S)-tetrahydrofuran-2-ylcarbonyl]amino}-N-ethyl-L-prolineamide] | 12 nM |
| CC(=O)N(C1CCC(C)(C)CC1)[C@H]1C[C@@H](C(=O)N2CCOCC2)N(C(=O)[C@@H]2CN(C(C)(C)C)C[C@H]2c2ccc(Cl)cc2)C1 [Example A96] | 38 nM |
| CCN(C)C(=O)[C@@H]1C[C@H](N(C(=O)C(C)(C)C)C2CCC(F)(F)CC2)CN1C(=O)[C@@H]1CN(C(C)(C)C)C[C@H]1c1ccc(Cl)cc1 [Example A75] | 79 nM |
| CCN(C)C(=O)[C@@H]1C[C@H](N(C(=O)[C@@H]2CCCO2)C2CCC3(CC2)CC3)CN1C(=O)[C@@H]1CN(C(C)(C)C)C[C@H]1c1ccc(Cl)cc1 [Example A90] | 30 nM |
| CN1C[C@@H](C(=O)N2C[C@@H](N(C(=O)C(C)(C)C)[C@H]3CC[C@@H](C)CC3)C[C@H]2C(N)=O)[C@H](c2ccc(Cl)cc2)C1 [Example A7, (4S)-1-{[(3S,4R)-4-(4-Chlorophenyl)-1-methylpyrrolidine-3-yl]carbonyl}-4-[(2,2-dimethylpropanoyl)(cis-4-methylcyclohexyl)amino]-L-prolineamide] | 24 nM |

Now from value to compound:

| EC50 | Compound |
| --- | --- |
| 22 nM | COCC(C)(C)C(=O)N(C1CCC(F)(F)CC1)[C@H]1C[C@@H](C(=O)N(C)C)N(C(=O)[C@@H]2CN(C(C)(C)C)C[C@H]2c2ccc(Cl)cc2)C1 [Example C24] |
| 65 nM | CC(C)C(=O)N(C1CCC(C)(C)CC1)C1CC(C=NO)N(C(=O)C2CN(C(C)(C)C)CC2c2ccc(F)cc2F)C1 (stereo not drawn) [Example B33] |
| 4 nM | CCNC(=N)N1C[C@@H](C(=O)N2CC[C@H](N(C(=O)C(C)C)[C@H]3CC[C@@H](C)CC3)C2)[C@H](c2ccc(Cl)cc2)C1 [Example E10, N-[(3S)-1-({(3S,4R)-4-(4-chlorophenyl)-1-[(ethylamino)(imino)methyl]pyrrolidine-3-yl}carbonyl)pyrrolidine-3-yl]2-methyl-N-(cis-4-methylcyclohexyl)propaneamide] |
| 15 nM | CC1(C)CCC(N(C(=O)C(C)(C)/C=N/O)[C@H]2CCN(C(=O)[C@@H]3CN(C(C)(C)C)C[C@H]3c3ccc(Cl)cc3)C2)CC1 [Example C3, (3E)-N-[(3S)-1-{[(3S,4R)-1-tert-butyl-4-(4-chlorophenyl)pyrrolidine-3-yl]carbonyl}pyrrolidine-3-yl]-N-(4,4-dimethylcyclohexyl)-3-(hydroxyimino)-2,2-dimethylpropaneamide] |
| 11 nM | COCC(C)(C)C(=O)N(C1CCC(C)(C)CC1)[C@H]1CCN(C(=O)[C@@H]2CN(C(C)(C)C)C[C@H]2c2ccc(Cl)cc2)C1 [Example C2, N-[(3S)-1-{[(3S,4R)-1-tert-butyl-4-(4-chlorophenyl)pyrrolidine-3-yl]carbonyl}pyrrolidine-3-yl]-N-(4,4-dimethylcyclohexyl)-3-methoxy-2,2-dimethylpropaneamide] |
